How the values were obtained:
[1] = Quantum yield measurements versus Acridine Yellow in EtOH; format: physicochemical; conditions: MKAC compound library; quantum yield
Outline: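 Emission areas integrated over 510–700 nm were compared with Acridine Yellow in ethanol (Φ=0.47), all excited at 460 nm. The comparative equation was normalized to excitation-wavelength absorbance and solvent refractive index.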

[2] = Absorbance and fluorescence emission spectra (SpectraMax M2); format: physicochemical; conditions: MKAC compound library; for λmax Abs. (nm): absorbance maximum; for λmax Em. (nm): fluorescence emission maximum
Outline: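 Spectroscopic data, including quantum yields, were recorded with a SpectraMax M2 instrument and analysed in GraphPrism.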

SMILES	φ (%) [1] [%]	λmax Abs. (nm) [2] [nm]	λmax Em. (nm) [2] [nm]
CC(=O)Nc1ccc(C2=C3C=CC(NCc4ccccc4C)=[N+]3[B-](F)(F)n3c2ccc3-n2cc(C3CCCC3)nn2)cc1 [MKAC101-5]	23.69	466	563
CC(=O)Nc1ccc(C2=C3C=CC(NCc4ccccc4C)=[N+]3[B-](F)(F)n3c2ccc3-n2cc(CC3CCCCC3)nn2)cc1 [MKAC101-8]	21.14	465	563
CC(=O)Nc1ccc(C2=C3C=CC(NCc4ccccc4C)=[N+]3[B-](F)(F)n3c2ccc3-n2cc(CN(C)Cc3ccccc3)nn2)cc1 [MKAC101-18]	13.14	465	
CC(=O)Nc1ccc(C2=C3C=CC(NCc4ccccc4C)=[N+]3[B-](F)(F)n3c2ccc3-n2cc(CCc3ccccc3)nn2)cc1 [MKAC101-19]	23.26	464	560
CC(=O)Nc1ccc(C2=C3C=CC(NCc4ccccc4C)=[N+]3[B-](F)(F)n3c2ccc3-n2cc(CC(C)C)nn2)cc1 [MKAC101-43]	20.12	465	562
CCCc1cn(-c2ccc3n2[B-](F)(F)[N+]2=C(NCc4ccccc4C)C=CC2=C3c2ccc(NC(C)=O)cc2)nn1 [MKAC101-48]	17.25	465	562
CCCCCC(O)c1cn(-c2ccc3n2[B-](F)(F)[N+]2=C(NCc4ccccc4C)C=CC2=C3c2ccc(NC(C)=O)cc2)nn1 (centres unmarked) [MKAC101-69]	24.08	461	562
CC(=O)Nc1ccc(C2=C3C=CC(NCc4ccccc4C)=[N+]3[B-](F)(F)n3c2ccc3-n2cc(CO)nn2)cc1 [MKAC101-70]	18.11	465	561
CCCC(C)c1cn(-c2ccc3n2[B-](F)(F)[N+]2=C(NCc4ccccc4OCC)C=CC2=C3c2ccc(NC(C)=O)cc2)nn1 (centres unmarked) [MKAC103-3]	23.42	465	561
CCOc1ccccc1CNC1=[N+]2C(=C(c3ccc(NC(C)=O)cc3)c3ccc(-n4cc(C5CC5)nn4)n3[B-]2(F)F)C=C1 [MKAC103-4]	24.86	464	565
CCOc1ccccc1CNC1=[N+]2C(=C(c3ccc(NC(C)=O)cc3)c3ccc(-n4cc(C5CCCC5)nn4)n3[B-]2(F)F)C=C1 [MKAC103-5]	18.11	465	562
CCOc1ccccc1CNC1=[N+]2C(=C(c3ccc(NC(C)=O)cc3)c3ccc(-n4cc(CC5CCCCC5)nn4)n3[B-]2(F)F)C=C1 [MKAC103-8]	25.32	465	562
CCOc1ccccc1CNC1=[N+]2C(=C(c3ccc(NC(C)=O)cc3)c3ccc(-n4cc(CN(C)Cc5ccccc5)nn4)n3[B-]2(F)F)C=C1 [MKAC103-18]	18.63	465	560
CCOc1ccccc1CNC1=[N+]2C(=C(c3ccc(NC(C)=O)cc3)c3ccc(-n4cc(CCc5ccccc5)nn4)n3[B-]2(F)F)C=C1 [MKAC103-19]	29.05	464	562
CCOc1ccccc1CNC1=[N+]2C(=C(c3ccc(NC(C)=O)cc3)c3ccc(-n4cc(CC(C)C)nn4)n3[B-]2(F)F)C=C1 [MKAC103-43]	22.79	465	560
CCCc1cn(-c2ccc3n2[B-](F)(F)[N+]2=C(NCc4ccccc4OCC)C=CC2=C3c2ccc(NC(C)=O)cc2)nn1 [MKAC103-48]	20.07	466	562
CCCCCC(O)c1cn(-c2ccc3n2[B-](F)(F)[N+]2=C(NCc4ccccc4OCC)C=CC2=C3c2ccc(NC(C)=O)cc2)nn1 (centres unmarked) [MKAC103-69]	20.91	465	561
CCOc1ccccc1CNC1=[N+]2C(=C(c3ccc(NC(C)=O)cc3)c3ccc(-n4cc(CO)nn4)n3[B-]2(F)F)C=C1 [MKAC103-70]	15.35	464	558

SMILES	φ (%) [1] [%]	λmax Abs. (nm) [2] [nm]	λmax Em. (nm) [2] [nm]
COc1ccc(OC)c(CNC2=[N+]3C(=C(c4ccc(NC(C)=O)cc4)c4ccc(-n5cc(C6CC6)nn5)n4[B-]3(F)F)C=C2)c1 [MKAC181-4]	15.43	464	562
COc1ccc(OC)c(CNC2=[N+]3C(=C(c4ccc(NC(C)=O)cc4)c4ccc(-n5cc(C6CCCC6)nn5)n4[B-]3(F)F)C=C2)c1 [MKAC181-5]	10.37	464	563
COc1ccc(OC)c(CNC2=[N+]3C(=C(c4ccc(NC(C)=O)cc4)c4ccc(-n5cc(CC6CCCCC6)nn5)n4[B-]3(F)F)C=C2)c1 [MKAC181-8]	13.98	465	564
COc1ccc(OC)c(CNC2=[N+]3C(=C(c4ccc(NC(C)=O)cc4)c4ccc(-n5cc(CN(C)Cc6ccccc6)nn5)n4[B-]3(F)F)C=C2)c1 [MKAC181-18]	18.28	464	561
COc1ccc(OC)c(CNC2=[N+]3C(=C(c4ccc(NC(C)=O)cc4)c4ccc(-n5cc(CCc6ccccc6)nn5)n4[B-]3(F)F)C=C2)c1 [MKAC181-19]	14.0	464	561
COc1ccc(OC)c(CNC2=[N+]3C(=C(c4ccc(NC(C)=O)cc4)c4ccc(-n5cc(CC(C)C)nn5)n4[B-]3(F)F)C=C2)c1 [MKAC181-43]	13.79	467	562
CCCc1cn(-c2ccc3n2[B-](F)(F)[N+]2=C(NCc4cc(OC)ccc4OC)C=CC2=C3c2ccc(NC(C)=O)cc2)nn1 [MKAC181-48]	11.03	465	561
COc1ccc(OC)c(CNC2=[N+]3C(=C(c4ccc(NC(C)=O)cc4)c4ccc(-n5cc(CO)nn5)n4[B-]3(F)F)C=C2)c1 [MKAC181-70]	15.37	465	559
CC(=O)Nc1ccc(C2=C3C=CC(N(C)Cc4ccccc4)=[N+]3[B-](F)(F)n3c2ccc3-n2cc(C3CC3)nn2)cc1 [MKAC195-4]	5.45	466	582
CC(=O)Nc1ccc(C2=C3C=CC(N(C)Cc4ccccc4)=[N+]3[B-](F)(F)n3c2ccc3-n2cc(C3CCCC3)nn2)cc1 [MKAC195-5]	4.18	467	578
CC(=O)Nc1ccc(C2=C3C=CC(N(C)Cc4ccccc4)=[N+]3[B-](F)(F)n3c2ccc3-n2cc(CC3CCCCC3)nn2)cc1 [MKAC195-8]	3.65	466	577
CC(=O)Nc1ccc(C2=C3C=CC(N(C)Cc4ccccc4)=[N+]3[B-](F)(F)n3c2ccc3-n2cc(CN(C)Cc3ccccc3)nn2)cc1 [MKAC195-18]	1.85	465	575
CC(=O)Nc1ccc(C2=C3C=CC(N(C)Cc4ccccc4)=[N+]3[B-](F)(F)n3c2ccc3-n2cc(CCc3ccccc3)nn2)cc1 [MKAC195-19]	3.78	467	577
CC(=O)Nc1ccc(C2=C3C=CC(N(C)Cc4ccccc4)=[N+]3[B-](F)(F)n3c2ccc3-n2cc(CC(C)C)nn2)cc1 [MKAC195-43]	3.48	466	580
CCCc1cn(-c2ccc3n2[B-](F)(F)[N+]2=C(N(C)Cc4ccccc4)C=CC2=C3c2ccc(NC(C)=O)cc2)nn1 [MKAC195-48]	2.72	467	575
CC(=O)Nc1ccc(C2=C3C=CC(N(C)Cc4ccccc4)=[N+]3[B-](F)(F)n3c2ccc3-n2cc(CO)nn2)cc1 [MKAC195-70]	1.67	464	579
CC(=O)Nc1ccc(C2=C3C=CC(N4CCCC4)=[N+]3[B-](F)(F)n3c2ccc3-n2cc(C3CC3)nn2)cc1 [MKAC215-4]	2.35	462	576
